Measurements from paper PMC12005787, “Synthetic Lethality of SHP2 and XIAP Suppresses Proliferation and Metastasis in KRAS‐mutant Nonsmall Cell Lung Cancer” (Advanced Science, 2025).

How the values were obtained:
[1] = tested on: A549 and NCI‐H2122 cells; assay: Cell proliferation in monolayer culture (CCK-8); assay type: cell-based, human
Description: For the adherent cell viability assay, cells in the logarithmic growth phase were seeded in 96-well culture plates at a density of 5×103 well-1 and incubated overnight. Diluted compounds or DMSO were added, or specific treatments were incubated at 37 °C and 5% CO2 for 24 h or 48 h. Cell viability was determined using CCK-8 or CellLightTM Cell Viability Assay Kit, according to the manufacturer's protocol. The luminescence signals of the treated samples were normalized to those of the DMSO group. […]
Figure S7. Targeting SHP2 and XIAP produces a synthetic lethal effect. (A) Effects of NSC-87877 on cell viability of A549 and NCI-H2122 cells after 24 and 48 h were determined using the CCK-8. Bars, ± SEM. The curves were plotted using a variable slope (four-parameter) non-linear fit. (B, E, F, and I) Effects of Na3VO4 (B), birinapant (E), BV-6 (F), and LCL161 (I) on cell viability of human NCI-H2122 cells at 48 h were determined using the CCK-8. *p < 0.05, **p < 0.01 and ***p < 0.001 compared to control group (unpaired two-tailed Student’s t-test).(C, G) Effects of SHP099 (C) and GDC-0152 (G) on cell viability after 24 and 48 h were determined using the CCK-8. Bars, ± SEM. The curves were plotted using a variable slope (four-parameter) non-linear fit.(D, H) Effects of SHP099 (D) and GDC-0152 (H) on cell viability were determined after 48 h using intracellular ATP chemiluminescence. **p < 0.01 and ***p < 0.001 compared to control group (unpaired two-tailed Student’s t-test).(J) Effects of SHP099 and GDC-0152 separately and in combination, and the effect of embelin for 24 h on the cell viability were assessed using intracellular ATP […]
tailed Student’s t-test).(K) Effects of SHP099 and GDC-0152 separately and in combination with […] on the cell viability of human KRAS-WT and -mutant cells were assessed using a colony formation assay. (L, M) A549 and NCI-H2122 cells were instantaneously transfected with siPTPN11 and siXIAP separately and together for 24 h under

[2] = tested on: SHP2 and ERK phosphorylation in KRAS, HRAS and NRAS‐mutant cells; assay: SHP2 and ERK phosphorylation in RAS-mutant cells (western blotting); assay type: cell-based; details: KRAS G12C, G12S, G13D
Description: Transwell, and the subsequent experiments were performed as described in Cell migration […]
After given treatment, cells were lysed by ice bath with radio-immunoprecipitation assay (RIPA) buffer containing 1% phenylmethylsulphonyl fluoride (PMSF), and the supernatant was collected by centrifugation, and the protein concentration was subsequently determined using a BCA Protein Assay Kit. Depending on the molecular weight of the proteins, different concentrations of sodium dodecyl-sulfate polyacrylamide gel electrophoresis (SDS-PAGE) separator gels were prepared for protein electrophoresis. Equal amounts of proteins were sampled and subjected to SDS-PAGE gel electrophoresis; at the end of electrophoresis, the proteins were transferred to nitrocellulose (NC) membranes. The NC membrane was blocked with 5% skim milk and covered with a specific primary antibody overnight at 4 °C, in which the primary antibody was diluted at a ratio of 1:500–1:5000. The NC membrane was […]

[3] = tested on: RAS wild‐type and mutant cells; assay: Colony formation assay; assay type: cell-based
Description: supplies are listed in Supplementary Table S5. […]
Colony formation experiment
Cells in the logarithmic growth phase were digested thoroughly into a single dispersed state and inoculated into six-well plates at a density of 100 well-1. Subsequently, different concentrations of the drugs were added for 14 d, consecutively, and the solution was changed every 2 d. Next, the cells were fixed with 4% formaldehyde, stained with 0.1% crystal violet, and the number of clones was counted using an inverted microscope. […]

[4] = target: T1, His‐ΔSHP2 (Homo sapiens, UniProt Q06124); assay: Isothermal titration calorimetry; assay type: binding; details: read-out: KD value (ITC)
T1 construct: His‐ΔSHP2, encompassing the peptide from amino acids 205–593 retaining PTP activity; His; made in house; host or cells: E. coli
T1 sequence (Q06124 205-593): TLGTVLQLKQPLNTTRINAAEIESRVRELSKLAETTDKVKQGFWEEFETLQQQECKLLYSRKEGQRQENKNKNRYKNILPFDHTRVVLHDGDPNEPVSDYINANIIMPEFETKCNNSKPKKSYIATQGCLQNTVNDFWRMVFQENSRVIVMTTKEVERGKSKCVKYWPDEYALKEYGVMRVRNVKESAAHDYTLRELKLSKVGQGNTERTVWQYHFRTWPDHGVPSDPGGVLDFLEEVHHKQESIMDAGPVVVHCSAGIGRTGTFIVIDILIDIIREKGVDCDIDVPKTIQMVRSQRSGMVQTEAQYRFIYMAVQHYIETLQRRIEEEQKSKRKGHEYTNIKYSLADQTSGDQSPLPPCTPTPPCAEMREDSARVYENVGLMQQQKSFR
Description: (§1) The purified His‐ΔSHP2, His‐SHP2, or His‐ΔSHP2^K325A proteins were dialyzed overnight in dialysis buffer (20 mM HEPES, 0.15 M NaCl, 1 mM TCEP, 10% glycerol, pH 7.5). The protein concentration was determined using the BCA Protein Assay Kit, and the purity of the proteins was detected by Coomassie Brilliant Blue staining. ITC experiments were performed when the protein concentration was higher than 2 mg mL^−1 and the purity was greater than 90%. The instrument (Malvern Instruments, USA) was considered to be functioning optimally for compound and protein titration experiments when the DP value was < 0.05 µcal s^−1 by the water droplet experiment. After the sample cell was cleaned twice with protein dialysis buffer, a protein sample (300 µL) was loaded to the sample cell, an equal amount of ultrapure water was added to the reference cell, and the compound solution dissolved with the same dialysis buffer was put into the corresponding cell, in which the protein‐compound molar ratio was 1:10–1:20. The parameters were adjusted based on the curve‐fitting results to determine the optimal binding concentration gradient. Based on the exothermic changes in the reaction, the entropy increase and enthalpy change were analyzed using software fitting to obtain parameters such as the binding coefficient and affinity constant between the small molecules and proteins.

[5] = target: T2, His‐SHP2 (Homo sapiens, UniProt Q06124); assay: Isothermal titration calorimetry; assay type: binding; details: read-out: KD value (ITC)
T2 construct: His; made in house; host or cells: E. coli
Description: as §1

[6] = target: T1, His‐ΔSHP2; assay: Reversibility of embelin-SHP2 binding (dialysis); assay type: biochemical
Description: To test whether embelin and SHP2 were reversibly bound, the purified His‐ΔSHP2 fusion protein was dialyzed overnight in dialysis buffer (10 mM HEPES, 0.5 M NaCl, 1 mM TCEP, and 10% glycerol, pH 7.5), and the protein activity was detected by DiFMUP. After incubating embelin with dialyzed protein at 37 °C for 30 min, the mixed solution was dialyzed overnight or ultrafiltered, with DMSO as a control, and protein activity was detected by DiFMUP to determine the mode of protein‐compound binding.

Row | Kd [4] [nM] | Kd [5] [nM] | mode of binding to SHP2 (dialysis) [6] | Compound | effect on cell proliferation in monolayer cell culture mode [1] | effect on SHP2 phosphorylation [2] | effect on downstream ERK phosphorylation [2] | colony formation [3]
1 | – | – | – | CC1(N)CCN(c2cnc(-c3cccc(Cl)c3Cl)c(N)n2)CC1 [SHP099] | almost no effect | – | – | –
2 | 220 | 22.9 | noncovalent | CCCCCCCCCCCC1=C(O)C(=O)C=C(O)C1=O [Embelin] | – | inhibited SHP2 phosphorylation | significantly reduced | cytotoxic effects on both RAS
